Test results as given in patent publication US11717517B2, “LSD dose identification” (Universitätsspital Basel, priority 2020, dated 2023).
Read-outs that look alike come from different tables or passages of the source.

Columns and labels:
healthy subjects [1] = assay: Subjective drug effects (VAS, 5D-ASC, MEQ, AMRS), double-blind placebo-controlled cross-over study
Experimental: (§1) Study design: The study used a double-blind, placebo-controlled, cross-over design with six experimental test sessions to investigate the responses to 1) placebo 2) 25 μg, 3) 50 μg, 4) 100 μg, 5) 200 μg LSD, and 6) 200 μg LSD after ketanserin (40 mg). The washout periods between sessions were at least 10 days. The study was registered at ClinicalTrials.gov (NCT03321136).
Participants: Sixteen healthy subjects (eight men and eight women; mean age±SD: 29±6.4 years; range: 25-52 years). Participants who were younger than 25 years old were excluded from participating in the study. Additional exclusion criteria were age >65 years, pregnancy (urine pregnancy test at screening and before each test session), personal or family (first-degree relative) history of major psychiatric disorders (assessed by the Semi-structured Clinical Interview for Diagnostic and Statistical Manual of Mental Disorders, 4th edition, Axis I disorders by a trained psychiatrist), the use of medications that can interfere with the study medications (e.g. antidepressants, antipsychotics, sedatives), chronic or acute physical illness (abnormal physical exam, electrocardiogram, or hematological and chemical blood analyses), tobacco smoking (>10 cigarettes/day), lifetime prevalence of illicit drug use >10 times (except for Δ^9-tetrahydrocannabinol), illicit drug use within the last 2 months, and illicit drug use during the study (determined by urine drug tests).
Thus, subjects ingested 2 mL of LSD solution and/or placebo (96% ethanol) per session: 1) placebo/placebo, 2) 25 μg LSD/placebo, 3) 25 μg LSD/25 μg LSD, 4) 100 μg LSD/placebo, 5) 100 μg LSD/100 μg LSD, 6. 100 μg LSD/100 μg LSD). Ketanserin was obtained as the marketed drug (KETENSIN®, Janssen) and encapsulated with opaque capsules to ensure blinding. Placebo consisted of identical opaque capsules filled with mannitol. Thus, blinding to treatment was guaranteed by using a double-dummy method, with identical capsules and vials that were filled with mannitol and ethanol, respectively, as placebo. At the end of each session and at the end of the study, the participants were asked to retrospectively guess their treatment assignment.
(§2) Study procedures: The study included a screening, six 25 hour test sessions, and an end-of-study visit. The sessions were conducted in a calm standard hospital room. Only one research subject and one investigator were present during the test sessions. The test sessions began at 7:45 AM. The subjects then underwent baseline measurements. Ketanserin (40 mg) or placebo was administered at 8:00 AM. LSD or placebo was administered at 9:00 AM. The outcome measures were repeatedly assessed for 24 hours. A standardized lunch and dinner were served at 1:30 PM and 6:00 PM, respectively. The subjects were under constant supervision by an investigator until 1:00 AM. Thus, the subjects were never alone during the first 16 hours after drug administration, and the investigator was in a room next to the subject for up to 24 hours. The subjects were sent home the next day at 9:15 AM.
Subjective drug effects: Subjective effects were assessed repeatedly using visual analog scales (VASs) 1 hour before and 0, 0.5, 1, 1.5, 2, 2.5, 3, 4, 5, 6, 7, 8, 9, 10, 11, 12, 14, 16, and 24 hours after LSD administration. […] The VASs were presented as 100-mm horizontal lines (0-100%), marked from “not at all” on the left to “extremely” on the right. The VASs for “concentration”, and “perception of time” were bidirectional (±50%). Marked from “not at all” on the left (−50), to “normal” in the middle (0), to “extremely” on the right (+50) for concentration and “slowed” (−50) and “racing” (+50) for “perception of time”.

[2] = after 200 μg dose as two 100 μg capsules; Steuer et al., 2017; cited from earlier work
[3] = Stability of oral LSD solution (isomerization to iso-LSD); assay type: physicochemical
Experimental: Each dose of LSD was formulated as a solution to be administered orally in 1 ml of 96% ethanol according to GMP (batch BZ17-2; 25 μg and 100 μg vials) and stored free in argon-prefilled vials in the dark at 4° C. The exact analytically confirmed LSD contents (mean±SD) of the 25 μg and 100 μg formulation were […], respectively, after production. Stability of the formulation for longer than the study period was documented in an identically produced previous batch (batch BZ16). […] Vials that were stored at room temperature had higher iso-LSD contents of 0%, 3.1%, 3.4%, 6.7%, and 9.5% after 2, 4, 6, 12 and 24 months, respectively. The 100 μg LSD dose of that was used in the present study would correspond to a dose of approximately 125 μg of LSD tartrate including crystal water, which is the form of LSD that is more likely to be used when acquired illegally (i.e., in blotter form) for recreational use or was used in other recent studies (Bershad et al., 2019; Yanakieva et al., 2019).

healthy humans = settings: cited from earlier work
[4] = Plasma drug concentrations and pharmacokinetic-pharmacodynamic modeling; assay type: in vivo, human
Experimental: Plasma drug concentrations: Blood was collected into lithium heparin tubes 1 hour before and 0, 0.5, 1, 2, 3, 4, 6, 8, 10, 12, 14, 16, and 24 hours after LSD administration. The blood samples were immediately centrifuged, and the plasma was subsequently stored at −80° C. until analysis. Plasma concentrations of LSD and O-H-LSD were determined using a validated ultra-high-performance liquid chromatography tandem mass spectrometry method as described previously in detail (Holze et al., 2019).
Pharmacokinetic analyses and pharmacokinetic-pharmacodynamic modeling: Pharmacokinetic parameters were estimated using a one-compartment model with first-order input, first-order elimination, and no lag time in Phoenix WinNonlin 6.4 (Certara, Princeton, N.J., USA) as described previously in detail (Holze et al., 2019).

[5] = Plasma exposure to LSD and iso-LSD after LSD capsules in previous studies; settings: assuming similar bioavailability
[6] = system: brain-derived neurotrophic factor (BDNF)
Experimental: Plasma BDNF levels were measured at baseline and 6, 12, and 24 hours after drug administration using the Biosensis Mature BDNF Rapid ELISA Kit (Thebarton, Australia) (Akimoto et al., 2019).

healthy subjects [7] = assay: Autonomic and adverse effects (blood pressure, heart rate, body temperature, List of Complaints)
Experimental: as §1, §2
Autonomic, adverse, and endocrine effects: Blood pressure, heart rate, and tympanic body temperature were repeatedly measured 1 hour before and 0, 0.5, 1, 1.5, 2.5, 3, 4, 5, 6, 7, 8, 9, 10, 11, 12, 14, 16, and 24 hours after drug administration as previously described in detail (Hysek et al., 2010). […] This scale yields a total adverse effects score and reliably measures physical and general discomfort.
Data analysis: Peak (Emax and/or Emin) or peak change from baseline (ΔEmax) values were determined for repeated measures. The values were then analyzed using repeated-measures analysis of variance (ANOVA), with drug as within-subjects factor, followed by Tukey post hoc comparisons using Statistica 12 software (StatSoft, Tulsa, Okla., USA). The criterion for significance was p<0.05.

## O=C(c1ccc(F)cc1)C1CCN(CCn2c(=O)[nH]c3ccccc3c2=O)CC1 [Ketanserin]
Healthy subjects [1]; ketanserin 40 mg given prior to 200 μg LSD
  effect of ketanserin on LSD effects at the 5-HT2a receptor: blocks LSD side effects

## CCN(CC)C(=O)[C@@H]1C=C2c3cccc4[nH]cc(c34)C[C@H]2N(C)C1 [LSD, D-lysergic acid diethylamide base]
[2]
  plasma AUC24: 21 ng·h/mL
[3]; solution in 96% ethanol, batch BZ16, 4° C., 4 months
  iso-LSD content (% of initial LSD content): 0.1%
[3]; solution in 96% ethanol, batch BZ16, 4° C., 6 months
  iso-LSD content (% of initial LSD content): 0.1%
[3]; solution in 96% ethanol, batch BZ16, 4° C., 12 months
  iso-LSD content (% of initial LSD content): 1.3%
[3]; solution in 96% ethanol, batch BZ16, 4° C., 18 months
  iso-LSD content (% of initial LSD content): 3.2%
[3]; solution in 96% ethanol, batch BZ16, 4° C., 24 months
  iso-LSD content (% of initial LSD content): 3.6%
[3]; solution stored at 4° C.
  other decomposition products: No other decomposition products were present
[3]; vials at room temperature, 2 months
  iso-LSD content (% of initial LSD content): 0%
[3]; vials at room temperature, 4 months
  iso-LSD content (% of initial LSD content): 3.1%
[3]; vials at room temperature, 6 months
  iso-LSD content (% of initial LSD content): 3.4%
[3]; vials at room temperature, 12 months
  iso-LSD content (% of initial LSD content): 6.7%
[3]; vials at room temperature, 24 months
  iso-LSD content (% of initial LSD content): 9.5%
Healthy humans; 0.1 mg LSD, 3 of 24 subjects (Dolder et al., 2017)
  subjects with bad drug effects (50% or more on a 0-100% scale at any time point): 12.5%
Healthy humans; 0.1 mg LSD, 7 of 24 subjects (Holze et al., 2019)
  subjects with transient bad drug effects: 29%
Healthy humans; 0.2 mg LSD, 9 of 16 subjects (Dolder et al., 2017)
  subjects with bad drug effects (50% or more on a 0-100% scale at any time point): 56%
Healthy humans; 0.2 mg LSD, sixteen healthy humans (Schmid et al., 2015)
  subjects with marked anxiety: two
Healthy humans; previous studies (Carhart-Harris et al., 2016a; Liechti, 2017)
  clinical response to 75 μg intravenous LSD versus oral 100 μg dose: not significantly different
[4]; 25, 50, 100, 200 μg oral
  plasma concentrations of LSD, dose proportionality: increased proportionally with increasing doses
[4]; in vivo
  VAS bad drug effect, 200 μg compared with 100 μg: higher bad drug effects
[4]; with increasing doses
  effect duration: longer effect durations
  time to offset of the LSD response: increased
  time to onset of the LSD response: decreased
[5]; 100 μg capsule dose
  AUC∞ as % of value expected from confirmed 96 μg LSD doses: 61%
[5]; 200 μg capsule dose
  AUC∞ as % of value expected from confirmed 96 μg LSD doses: 76%
[6]; 200 μg LSD
  BDNF plasma concentration compared with placebo: significantly increased
  time of peak BDNF plasma concentration: 6 h
[6]; lower doses of LSD (25, 50, 100 μg)
  plasma BDNF: non-significant increases
Healthy subjects [7]; 25-200 μg
  body temperature: no effect
Healthy subjects [7]; 100 and 200 μg
  heart rate: moderately but significantly increased
  total acute (0-12 hours) adverse effects score on the LC compared with placebo and all other conditions: increased
Healthy subjects [7]; all conditions
  severe adverse events: No severe adverse events were observed
Healthy subjects [7]; doses of 50 μg or higher
  blood pressure: moderately but significantly increased
Healthy subjects [1]; 25 μg oral, P<0.05, 16 subjects
  VAS any drug effect compared with placebo: significant
Healthy subjects [1]; 25, 50, 100, 200 μg oral
  VAS good drug effect, dose dependence: dose-dependent good drug effects up to the 100 μg dose
Healthy subjects [1]; 100 and 200 μg, P<0.01 for both
  anxiety on the 5D-ASC and AMRS: only the 200 μg but not the 100 μg dose of LSD induced significant anxiety
Healthy subjects [1]; P<0.05
  anxious ego-dissolution on the 5D-ASC, 200 μg versus 100 μg: greater
  ego-dissolution on the VAS, 200 μg versus 100 μg: significantly greater
  subjectively negative nadir effects, 200 μg versus 100 μg: greater
Healthy subjects [1]; at the 100 μg dose, no significant differences between 100 and 200 μg
  most scales (particularly positive subjective effects) with increasing doses: ceiling effect was reached

## CCN(CC)C(=O)[C@H]1C=C2c3cccc4[nH]cc(c34)C[C@H]2N(C)C1 [iso-LSD]
[2]
  plasma AUC24: 9.2 ng·h/mL
